For data set [1], the target named is human Cereblon WT GST-tagged protein (Homo sapiens (Human), UniProt Q96SW2). In words: CRBN-binding affinity, HTRF (CEREBLON BINDING kit). A digest of the protocol: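 GST-tagged human WT Cereblon incubated with compound, then Thalidomide-Re tracer and anti-GST Eu antibody added. Displacement read by HTRF, reported as CRBN binding inhibition rate against blank control wells without protein.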

Another data set concerns the target IKZF1 protein (Homo sapiens (Human), UniProt Q13422+Q96SW2). The experiment in a line: Western-blot assay of substrate protein degradation in hPBMC, IKZF1. In kind it is cell-based. To be noted: hPBMC cells, compound 500 nM, 24 hours, Western blot.
Another data set concerns the target IKZF3 protein (Homo sapiens (Human), UniProt Q96SW2+Q9UKT9). The experiment in a line: Western-blot assay of substrate protein degradation in hPBMC, IKZF3. In kind it is cell-based. Particulars: hPBMC cells, compound 500 nM, 24 hours, Western blot.
A further data set deals with GSPT1 protein (Homo sapiens (Human), UniProt P15170+Q96SW2). The experiment in a line: Western-blot assay of substrate protein degradation in hPBMC, GSPT1. In kind it is cell-based. To be noted: hPBMC cells, compound 500 nM, 24 hours, Western blot.
Data set [2] can be described thus: Pharmacokinetic study, oral administration, mouse plasma. In kind it is in vivo, mice. The procedure:
The experimental animals used can be those commonly used in pharmacokinetic experiments, e.g., adult and healthy rodents (e.g., mice, rats (such as Sprague-Dawley (SD) rats), guinea pigs) or non-rodents (rabbits, dogs, and monkeys). In the present disclosure, mice were used as the experimental animals.
The experimental animals were divided into two groups: a control group (for collecting blank plasma) and an orally administered group (dosed at 10 mg/kg or 30 mg/kg). Blood samples were collected at predetermined sampling time points after administration, such as 0.25 h, 0.5 h, 1 h, 2 h, 4 h, 8 h, and 24 h post-dosing. Blank plasma was collected from the control group.
Plasma samples were preprocessed before analysis: 10 μL of 50% acetonitrile and 200 μL of internal standard solution (containing 50 ng/mL dexamethasone in acetonitrile) were added to 10 μL of plasma samples. For the blank control group, the same volume of acetonitrile was added instead of the internal standard. The processed samples were vortexed, centrifuged, and the supernatant was taken for LC-MS/MS injection analysis.
After preparing standard curves and quality control (QC) samples, the concentrations of the compounds in the plasma samples were determined by LC-MS/MS analysis. Based on the plasma concentration data obtained from LC-MS/MS analysis, the pharmacokinetic parameters of the test compounds were calculated using the non-compartmental model in the pharmacokinetic calculation software WinNonlin v8.1.

Another data set relates to Mino cells. In words: Tumor cell proliferation IC50 (CCK-8), Mino.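 Also: cell viability assessed with CCK-8 reagent after compound exposure, IC50 derived from plotted growth inhibition curves.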 To be noted: Homo sapiens, 72 h, read-out: IC50 for inhibiting the proliferation of tumor cells, Mino.
For a further data set, the system named is MM.1S cells. The experiment in a line: Tumor cell proliferation IC50 (CCK-8), MM.1S.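 Also: viability of cultured cells read by CCK-8 reagent after compound exposure, growth inhibition curves fitted to derive IC50.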 Particulars: Homo sapiens, MM1.S, 72 h, read-out: IC50 for inhibiting the proliferation of tumor cells, MM.1S.
Another data set deals with Daudi cells. The experiment in a line: Tumor cell proliferation IC50 (CCK-8), Daudi.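 Also: cell viability read with CCK-8 reagent after compound exposure of Daudi cells, IC50 derived from plotted growth inhibition curves.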 Particulars: Homo sapiens, read-out: IC50 for inhibiting the proliferation of tumor cells, Daudi.
A further data set has as its system CCRF-CEM cells. In words: Tumor cell proliferation IC50 (CCK-8), CCRF-CEM.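 Also: cell viability measured with CCK-8 reagent after compound treatment, IC50 taken from plotted growth inhibition curves.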 To be noted: Homo sapiens, 96 h, read-out: IC50 for inhibiting the proliferation of tumor cells, CCRF-CEM.
The test system of another data set is MV-4-11 cells. The experiment in a line: Tumor cell proliferation IC50 (CCK-8), MV-4-11. Particulars: Homo sapiens, MV4-11, 96 h, read-out: IC50 for inhibiting the proliferation of tumor cells, MV-4-11.

IKZF1 protein, sequence (Q13422 whole entry): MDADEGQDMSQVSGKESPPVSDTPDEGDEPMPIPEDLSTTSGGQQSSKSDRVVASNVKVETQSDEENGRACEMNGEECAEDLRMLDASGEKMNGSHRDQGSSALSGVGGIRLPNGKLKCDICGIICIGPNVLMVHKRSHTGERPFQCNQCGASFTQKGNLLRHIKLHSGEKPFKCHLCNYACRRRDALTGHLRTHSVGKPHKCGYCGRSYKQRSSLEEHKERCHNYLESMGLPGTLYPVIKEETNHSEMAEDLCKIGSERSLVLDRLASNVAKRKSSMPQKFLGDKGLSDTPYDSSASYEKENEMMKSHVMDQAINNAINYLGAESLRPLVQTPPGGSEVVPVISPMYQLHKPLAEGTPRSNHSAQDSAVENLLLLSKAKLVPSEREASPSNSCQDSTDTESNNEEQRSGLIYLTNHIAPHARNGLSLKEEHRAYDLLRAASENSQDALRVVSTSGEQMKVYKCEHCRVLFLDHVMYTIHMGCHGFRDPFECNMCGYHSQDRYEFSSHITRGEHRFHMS
IKZF1 protein, sequence (Q96SW2 whole entry): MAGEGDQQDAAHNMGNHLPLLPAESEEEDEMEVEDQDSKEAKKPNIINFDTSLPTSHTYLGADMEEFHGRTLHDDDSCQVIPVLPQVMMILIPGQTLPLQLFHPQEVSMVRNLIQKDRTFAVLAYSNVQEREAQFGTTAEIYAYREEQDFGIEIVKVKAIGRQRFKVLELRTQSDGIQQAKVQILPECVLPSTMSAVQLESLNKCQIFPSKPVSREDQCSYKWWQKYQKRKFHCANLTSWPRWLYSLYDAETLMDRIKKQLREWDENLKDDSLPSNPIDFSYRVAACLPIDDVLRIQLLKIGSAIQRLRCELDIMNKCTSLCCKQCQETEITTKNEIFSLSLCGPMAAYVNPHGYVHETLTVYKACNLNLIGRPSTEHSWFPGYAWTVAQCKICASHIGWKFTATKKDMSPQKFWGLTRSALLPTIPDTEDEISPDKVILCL
IKZF1 protein, sequence (Q16531 whole entry partner): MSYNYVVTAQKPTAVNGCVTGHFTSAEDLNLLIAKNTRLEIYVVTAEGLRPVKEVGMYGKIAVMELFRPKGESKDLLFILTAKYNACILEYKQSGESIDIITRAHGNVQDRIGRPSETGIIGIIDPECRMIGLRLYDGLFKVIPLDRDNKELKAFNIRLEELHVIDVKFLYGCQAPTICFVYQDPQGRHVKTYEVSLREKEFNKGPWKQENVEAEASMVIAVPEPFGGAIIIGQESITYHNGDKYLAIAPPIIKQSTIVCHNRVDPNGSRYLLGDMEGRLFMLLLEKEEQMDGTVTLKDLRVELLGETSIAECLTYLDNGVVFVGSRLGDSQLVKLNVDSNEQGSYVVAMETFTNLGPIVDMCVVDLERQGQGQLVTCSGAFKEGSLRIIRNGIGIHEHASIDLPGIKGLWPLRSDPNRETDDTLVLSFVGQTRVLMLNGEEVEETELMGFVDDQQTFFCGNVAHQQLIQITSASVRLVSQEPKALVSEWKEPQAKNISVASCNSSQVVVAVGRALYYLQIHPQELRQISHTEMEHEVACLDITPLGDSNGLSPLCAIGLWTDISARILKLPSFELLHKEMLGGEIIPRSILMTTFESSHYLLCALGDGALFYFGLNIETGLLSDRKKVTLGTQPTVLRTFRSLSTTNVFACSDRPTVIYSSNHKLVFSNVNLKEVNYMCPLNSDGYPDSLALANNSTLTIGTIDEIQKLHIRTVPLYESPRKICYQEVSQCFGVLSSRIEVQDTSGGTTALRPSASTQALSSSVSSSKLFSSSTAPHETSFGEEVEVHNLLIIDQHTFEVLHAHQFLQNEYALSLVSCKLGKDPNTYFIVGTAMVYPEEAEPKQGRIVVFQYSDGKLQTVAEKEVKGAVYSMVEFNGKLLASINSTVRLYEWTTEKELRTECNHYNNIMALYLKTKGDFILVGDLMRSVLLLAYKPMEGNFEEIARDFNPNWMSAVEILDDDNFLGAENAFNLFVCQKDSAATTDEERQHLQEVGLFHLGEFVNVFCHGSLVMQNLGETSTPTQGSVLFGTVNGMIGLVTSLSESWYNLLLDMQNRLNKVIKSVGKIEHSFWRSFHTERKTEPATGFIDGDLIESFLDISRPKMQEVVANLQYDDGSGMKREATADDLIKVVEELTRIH
GSPT1 protein, sequence (P15170 whole entry): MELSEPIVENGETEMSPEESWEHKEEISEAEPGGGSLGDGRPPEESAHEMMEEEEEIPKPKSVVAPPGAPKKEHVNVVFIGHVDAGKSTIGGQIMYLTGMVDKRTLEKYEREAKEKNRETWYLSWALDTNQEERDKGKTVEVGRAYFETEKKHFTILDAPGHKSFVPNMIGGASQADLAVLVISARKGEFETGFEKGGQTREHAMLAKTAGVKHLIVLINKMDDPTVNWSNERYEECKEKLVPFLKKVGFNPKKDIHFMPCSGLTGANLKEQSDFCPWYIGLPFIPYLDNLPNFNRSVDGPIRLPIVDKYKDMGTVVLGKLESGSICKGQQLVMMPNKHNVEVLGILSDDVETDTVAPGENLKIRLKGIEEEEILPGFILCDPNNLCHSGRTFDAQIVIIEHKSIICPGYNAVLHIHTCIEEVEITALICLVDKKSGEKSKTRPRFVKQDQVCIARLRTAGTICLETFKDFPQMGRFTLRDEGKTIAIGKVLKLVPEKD
GSPT1 protein, sequence (Q96SW2 whole entry): as the sequence (Q96SW2 whole entry) above
GSPT1 protein, sequence (Q16531 whole entry partner): as the sequence (Q16531 whole entry partner) above
IKZF3 protein, sequence (Q9UKT9 whole entry): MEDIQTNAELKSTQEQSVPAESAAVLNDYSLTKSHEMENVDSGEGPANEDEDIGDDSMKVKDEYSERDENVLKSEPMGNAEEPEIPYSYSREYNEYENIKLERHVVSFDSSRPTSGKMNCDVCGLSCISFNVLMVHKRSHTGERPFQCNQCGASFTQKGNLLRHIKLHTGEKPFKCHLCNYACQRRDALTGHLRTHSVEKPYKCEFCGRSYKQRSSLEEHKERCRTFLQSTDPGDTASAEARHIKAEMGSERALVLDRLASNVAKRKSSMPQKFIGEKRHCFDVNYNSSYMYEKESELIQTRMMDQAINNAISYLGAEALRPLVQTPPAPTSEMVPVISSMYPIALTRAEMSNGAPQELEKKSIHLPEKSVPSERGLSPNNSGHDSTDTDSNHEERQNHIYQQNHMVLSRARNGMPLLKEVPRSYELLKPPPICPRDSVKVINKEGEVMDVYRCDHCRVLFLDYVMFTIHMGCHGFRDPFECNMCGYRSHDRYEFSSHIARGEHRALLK
IKZF3 protein, sequence (Q96SW2 whole entry): as the sequence (Q96SW2 whole entry) above
IKZF3 protein, sequence (Q16531 whole entry partner): as the sequence (Q16531 whole entry partner) above
human Cereblon WT GST-tagged protein, sequence (Q96SW2 whole entry): as the sequence (Q96SW2 whole entry) above
Procedure for Daudi cells: (§1) The tumor cells used herein were cultured in a cell culture medium listed in table A at 37° C. in an incubator with 5% CO2.
(§2) After the cells were treated with the compounds of the present disclosure for a period of time, the cell viability detection reagent was added to the culture medium for cell viability assessment according to the instructions provided with the CCK-8 kit. […] The growth inhibition of the compounds of the present disclosure on cells was plotted by Prism Graphpad software, and the IC50 values of the compounds of the present disclosure were calculated therefrom.
Procedure for MV-4-11 cells: as §1, §2
Procedure for Mino cells: as §1, §2

In the case of `O=C1CCC(N2Cc3cc(CC4CN(C(=O)c5ccccc5-c5ccc(Cl)cc5)C4)ccc3C2=O)C(=O)N1` (centres unmarked) [GT-03922, 3-(5-((1-(4′-chloro-[1,1′-biphenyl]-2-carbonyl)azetidin-3-yl)methyl)-1-oxoisoindolin-2-yl)piperidine-2,6-dione], the IC50 in data set [1] was 0.16 µM. At IKZF1 protein, the “residual substrate protein level, IKZF1” value is reported as “A (A represents a residual substrate protein level of <50%)”. Further, on IKZF3 protein, the “residual substrate protein level, IKZF3” value was “A (A represents a residual substrate protein level of <50%)”. For the same molecule, the “residual substrate protein level, GSPT1” value on GSPT1 protein was “A (A represents a residual substrate protein level of <50%)”. Besides, in [2] (p.o. 10 mg/kg), the AUC(0-t) is ≤ 0.5 µg·h/mL.
Molecule `O=C1CCC(N2Cc3cc(CN4CCN(Cc5ccccc5-c5ccc(F)cc5)CC4)ccc3C2=O)C(=O)N1` (centres unmarked) [GT-04256, 3-(5-((4-((4′-fluoro-[1,1′-biphenyl]-2-yl)methyl)piperazin-1-yl)methyl)-1-oxoisoindolin-2-yl)piperidine-2,6-dione] gave an IC50 in data set [1] of 1.42 µM. The “residual substrate protein level, IKZF1” value on IKZF1 protein is recorded as “A (A represents a residual substrate protein level of <50%)”. The “residual substrate protein level, IKZF3” value at IKZF3 protein was “A (A represents a residual substrate protein level of <50%)”. Moreover, the “residual substrate protein level, GSPT1” value on GSPT1 protein is “A (A represents a residual substrate protein level of <50%)”. In [2] (p.o. 10 mg/kg), the AUC(0-t) was ≤ 0.5 µg·h/mL.
As for `CC1(C)CCC(CN2CCN(Cc3cccc4c3CN(C3CCC(=O)NC3=O)C4=O)CC2)=C(c2ccc(Cl)cc2)C1` (centres unmarked) [GT-03649, 3-(4-((4-((4′-chloro-5,5-dimethyl-3,4,5,6-tetrahydro-[1,1′-biphenyl]-2-yl)methyl)piperazin-1-yl)methyl)-1-oxoisoindolin-2-yl)piperidine-2,6-dione], the AUC(0-t) in [2] (p.o. 30 mg/kg) is > 0.5 µg·h/mL.
In the case of `O=C1CCC(N2Cc3cc(CN4CCN(Cc5ncccc5-c5ccc(Cl)cc5)CC4)ccc3C2=O)C(=O)N1` (centres unmarked) [GT-05778, 3-(5-((4-((3-(4-chlorophenyl)pyridin-2-yl)methyl)piperazin-1-yl)methyl)-1-oxoisoindolin-2-yl)piperidine-2,6-dione], the IC50 in [1] was 0.56 µM; with Mino cells, < 0.005 µM; with MM.1S cells it was < 0.005 µM; in the data set with Daudi cells it was 0.005 to 0.01 µM; in the data set with CCRF-CEM cells it was < 0.005 µM. The “residual substrate protein level, IKZF1” value on IKZF1 protein is listed as “A (A represents a residual substrate protein level of <50%)”. For the same molecule, at IKZF3 protein, the “residual substrate protein level, IKZF3” value was “A (A represents a residual substrate protein level of <50%)”. In addition, at GSPT1 protein, the “residual substrate protein level, GSPT1” value is given as “A (A represents a residual substrate protein level of <50%)”.
Take `O=C1CCC(N2Cc3cc(CN4CCN(Cc5ccccc5-c5cccs5)CC4)ccc3C2=O)C(=O)N1` (centres unmarked) [GT-05519, 3-(1-oxo-5-((4-(2-(thiophen-2-yl)benzyl)piperazin-1-yl)methyl)isoindolin-2-yl)piperidine-2,6-dione]: the IC50 in data set [1] is 0.41 µM; in the data set on Mino cells, < 0.005 µM; with MM.1S cells, < 0.005 µM; in the data set on Daudi cells, 0.005 to 0.01 µM; with CCRF-CEM cells, < 0.005 µM. In addition, the “residual substrate protein level, IKZF1” value at IKZF1 protein is on record as “A (A represents a residual substrate protein level of <50%)”. Further, on IKZF3 protein, the “residual substrate protein level, IKZF3” value is “A (A represents a residual substrate protein level of <50%)”. Moreover, the “residual substrate protein level, GSPT1” value at GSPT1 protein is listed as “A (A represents a residual substrate protein level of <50%)”.
Regarding `O=C1CCC(N2Cc3cc(NC4CN(Cc5ccccc5-c5ccc(Cl)cc5)C4)ccc3C2=O)C(=O)N1` (centres unmarked) [GT-05382, 3-(5-((1-((4′-chloro-[1,1′-biphenyl]-2-yl)methyl)azetidin-3-yl)amino)-1-oxoisoindolin-2-yl)piperidine-2,6-dione], the IC50 in data set [1] is 0.66 µM; in the data set on Mino cells, 0.01 to 0.05 µM; with MM.1S cells it was 0.01 to 0.05 µM; in the data set with Daudi cells it was 0.1 to 0.5 µM; in the data set on CCRF-CEM cells, 0.1 to 0.5 µM. For the same molecule, the “residual substrate protein level, IKZF1” value at IKZF1 protein is “A (A represents a residual substrate protein level of <50%)”. Besides, on IKZF3 protein, the “residual substrate protein level, IKZF3” value is “A (A represents a residual substrate protein level of <50%)”. Besides, the “residual substrate protein level, GSPT1” value at GSPT1 protein was “A (A represents a residual substrate protein level of <50%)”.
Consider `CC1(C)CCC(CN2CC3CCC(C2)N3Cc2cc3c(cc2F)C(=O)N(C2CCC(=O)NC2=O)C3)=C(c2ccc(Cl)cc2)C1` (centres unmarked) [GT-05494, 3-(5-((3-((4′-chloro-5,5-dimethyl-3,4,5,6-tetrahydro-[1,1′-biphenyl]-2-yl)methyl)-3,8-diazabicyclo[3.2.1]octan-8-yl)methyl)-6-fluoro-1-oxoisoindolin-2-yl)piperidine-2,6-dione], for which, at IKZF1 protein, the “residual substrate protein level, IKZF1” value is “A (A represents a residual substrate protein level of <50%)”. Further, on IKZF3 protein, the “residual substrate protein level, IKZF3” value is given as “A (A represents a residual substrate protein level of <50%)”. Moreover, the “residual substrate protein level, GSPT1” value on GSPT1 protein is on record as “A (A represents a residual substrate protein level of <50%)”. Also, the IC50 in the data set with MM.1S cells fell in the range of 0.5 to 1 µM; with MV-4-11 cells, 0.1 to 0.5 µM; in the data set with CCRF-CEM cells, 0.1 to 0.5 µM.
Turning to `O=C1CCC(N2Cc3cc(CN4CCN(Cc5ccccc5-c5ccc(F)cc5)CC4)c(F)cc3C2=O)C(=O)N1` (centres unmarked) [GT-05603, 3-(6-fluoro-5-((4-((4′-fluoro-[1,1′-biphenyl]-2-yl)methyl)piperazin-1-yl)methyl)-1-oxoisoindolin-2-yl)piperidine-2,6-dione], the IC50 was 0.94 µM in data set [1]; < 0.005 µM with Mino cells; < 0.005 µM in the data set on MM.1S cells; 0.005 to 0.01 µM in the data set with Daudi cells; 0.0025 µM in the data set with CCRF-CEM cells. For the same molecule, the “residual substrate protein level, IKZF1” value on IKZF1 protein is “A (A represents a residual substrate protein level of <50%)”. Besides, the “residual substrate protein level, IKZF3” value on IKZF3 protein is “A (A represents a residual substrate protein level of <50%)”. In addition, on GSPT1 protein, the “residual substrate protein level, GSPT1” value is on record as “A (A represents a residual substrate protein level of <50%)”.
Regarding `O=C1CCC(N2Cc3cc(CN4CCN(C(=O)c5ccccc5-c5ccc(Cl)cc5)CC4C(F)(F)F)ccc3C2=O)C(=O)N1` (centres unmarked) [GT-05789, 3-(5-((4-(4′-chloro-[1,1′-biphenyl]-2-carbonyl)-2-(trifluoromethyl)piperazin-1-yl)methyl)-1-oxoisoindolin-2-yl)piperidine-2,6-dione], the IC50 in [1] was 0.52 µM; in the data set on Mino cells, 0.01 to 0.05 µM; with MM.1S cells, 0.01 to 0.05 µM; with Daudi cells, 0.1 to 0.5 µM; in the data set on CCRF-CEM cells it was 0.01 to 0.05 µM. Moreover, the “residual substrate protein level, IKZF1” value at IKZF1 protein is on record as “B (B represents a residual substrate protein level of >50%)”. The “residual substrate protein level, IKZF3” value at IKZF3 protein is listed as “B (B represents a residual substrate protein level of >50%)”. Besides, the “residual substrate protein level, GSPT1” value at GSPT1 protein is reported as “A (A represents a residual substrate protein level of <50%)”.
Turning to `O=C1CCC(N2Cc3cc(CN4CCN(Cc5ccccc5-c5ccc(Cl)cn5)CC4)ccc3C2=O)C(=O)N1` (centres unmarked) [GT-05860, 3-(5-((4-(2-(5-chloropyridin-2-yl)benzyl)piperazin-1-yl)methyl)-1-oxoisoindolin-2-yl)piperidine-2,6-dione], the IC50 in [1] was 0.56 µM; in the data set on Mino cells it was 0.005 to 0.01 µM; in the data set with MM.1S cells, < 0.005 µM; with Daudi cells it was 0.01 to 0.05 µM; with CCRF-CEM cells, 0.005 to 0.01 µM. For the same molecule, the “residual substrate protein level, IKZF1” value at IKZF1 protein is “A (A represents a residual substrate protein level of <50%)”. On IKZF3 protein, the “residual substrate protein level, IKZF3” value is recorded as “A (A represents a residual substrate protein level of <50%)”. On GSPT1 protein, the “residual substrate protein level, GSPT1” value is on record as “A (A represents a residual substrate protein level of <50%)”.

For the origin of these results see patent US20260028326A1, “COMPOUND BASED ON ISOINDOLINE-SUBSTITUTED GLUTARIMIDE BACKBONE AND USE THEREOF” (GLUETACS THERAPEUTICS (SHANGHAI) CO., LTD., priority 2022, published 2026).
